Experimental data from ChEMBL document CHEMBL1201862, “PubChem BioAssay data set” (2004).
Where “and” joins values, the source holds several entries; their conditions need not be identical. Identical values can stand only once.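 Values below derive from 48-hour exposures of cells grown in 96-well plates, with endpoints linearly interpolated between the two concentrations bracketing the appropriate inhibition level. GI50 is the concentration that inhibits growth by half.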 Calls of active or inactive are those of the source. Cut-off read from the data, not from the text of the source: active = GI50 up to about 1.1 µM and inactive = higher.

Tests used:
Experiment in all cases: inhibition of tumour cell growth, NCI panel, 48 h
SK-MEL-2 = tested on: SK-MEL-2
SF-268 = tested on: SF-268
SN12C = tested on: SN12C
HT-29 = tested on: HT-29
OVCAR-5 = tested on: OVCAR-5
SW-620 = tested on: SW-620
HOP-62 = tested on: HOP-62
KM12 = tested on: KM12
SK-OV-3 = tested on: SK-OV-3
NCI-H460 = tested on: NCI-H460
IGROV-1 = tested on: IGROV-1
NCI-H522 = tested on: NCI-H522
LOX IMVI = tested on: LOX IMVI
SNB-19 = tested on: SNB-19
RPMI-8226 = tested on: RPMI-8226
K562 = tested on: K562
NCI/ADR-RES = tested on: NCI/ADR-RES
MCF7 = tested on: MCF7
NCI-H226 = tested on: NCI-H226
HCC 2998 = tested on: HCC 2998

Row | SMILES | GI50 (SK-MEL-2) | GI50 (SF-268) | GI50 (SN12C) | GI50 (HT-29) | GI50 (OVCAR-5) | GI50 (SW-620) | GI50 (HOP-62) | GI50 (KM12) | GI50 (SK-OV-3) | GI50 (NCI-H460) | GI50 (IGROV-1) | GI50 (NCI-H522) | GI50 (LOX IMVI) | GI50 (SNB-19) | GI50 (RPMI-8226) | GI50 (K562) | GI50 (NCI/ADR-RES) | GI50 (MCF7) | GI50 (NCI-H226) | GI50 (HCC 2998)
1 | CCOC(=O)Nc1ccc(S(=O)(=O)Nc2ccc(Br)cc2)cc1 | 47.1 µM (inactive) | 28.2 µM (inactive) | 59.8 µM (inactive) | 33.2 µM (inactive) | 58.1 µM (inactive) | 24.3 µM (inactive) | 33.5 µM (inactive) | 37.3 µM (inactive) | 25.9 µM (inactive) | 23.2 µM (inactive) | 35 µM (inactive) | 29 µM (inactive) | 26.4 µM (inactive) | 73.5 µM (inactive) | 25.1 µM (inactive) | 17.3 µM (inactive) | 34.4 µM (inactive) | 23.3 µM (inactive) |  | 
2 | CC(C)CC1c2[nH]c3ccccc3c2C[C@H]2C(=O)NC(Cc3c[nH]c4ccccc34)C(=O)N12 (stereo partly specified) | 16 µM (inactive) | 18 µM (inactive) | 15.9 µM (inactive) | 14.9 µM (inactive) | 24.7 µM (inactive) | 18.1 µM (inactive) | 20.6 µM (inactive) | 13.4 µM (inactive) | 16.5 µM (inactive) |  | 15.5 µM (inactive) | 11.5 µM (inactive) | 14.2 µM (inactive) | 16.8 µM (inactive) | 13.9 µM (inactive) | 11.5 µM (inactive) | 18 µM (inactive) | 14.8 µM (inactive) | 26.9 µM (inactive) | 
3 | COc1ccc(C2=C(N)c3ncccc3C2=O)cc1 | > 100 µM (inactive) | > 100 µM (inactive) | > 100 µM (inactive) | > 100 µM (inactive) | > 100 µM (inactive) | > 100 µM (inactive) | > 100 µM (inactive) | > 100 µM (inactive) | > 100 µM (inactive) | > 100 µM (inactive) | > 100 µM (inactive) |  | > 100 µM (inactive) | > 100 µM (inactive) | > 100 µM (inactive) | > 100 µM (inactive) | > 100 µM (inactive) | > 100 µM (inactive) | > 100 µM (inactive) | > 100 µM (inactive)
4 | O=c1c2cc([N+](=O)[O-])ccc2n2n1CCCC2 |  | > 100 µM (inactive) | > 100 µM (inactive) | > 100 µM (inactive) | > 100 µM (inactive) | > 100 µM (inactive) | > 100 µM (inactive) | > 100 µM (inactive) | > 100 µM (inactive) | > 100 µM (inactive) | > 100 µM (inactive) | > 100 µM (inactive) | > 100 µM (inactive) | > 100 µM (inactive) | > 100 µM (inactive) | > 100 µM (inactive) | > 100 µM (inactive) |  | > 100 µM (inactive) | > 100 µM (inactive)
5 | O=C(CSc1nnc(-c2ccccn2)s1)N/N=C/c1ccc([N+](=O)[O-])cc1 | 77.1 µM (inactive) | 22.1 µM (inactive) | 69.8 µM (inactive) | > 100 µM (inactive) | > 100 µM (inactive) | > 100 µM (inactive) | 35.6 µM (inactive) | > 100 µM (inactive) | 35.2 µM (inactive) | > 100 µM (inactive) | 20.9 µM (inactive) | > 100 µM (inactive) | > 100 µM (inactive) | 21.9 µM (inactive) |  | > 100 µM (inactive) | > 100 µM (inactive) | > 100 µM (inactive) | > 100 µM (inactive) | 
6 | Brc1ccc(-c2cn3ccncc3n2)cc1 | > 100 µM (inactive) | > 100 µM (inactive) | > 100 µM (inactive) | > 100 µM (inactive) | > 100 µM (inactive) |  | > 100 µM (inactive) | > 100 µM (inactive) | > 100 µM (inactive) | > 100 µM (inactive) | > 100 µM (inactive) | > 100 µM (inactive) | > 100 µM (inactive) | > 100 µM (inactive) | > 100 µM (inactive) | > 100 µM (inactive) | > 100 µM (inactive) | > 100 µM (inactive) | > 100 µM (inactive) | 
7 | Cc1c2ccccc2c(C)n2c1nc1ccccc12 |  | 9.89 µM (inactive) | 5.2 µM (inactive) | 5.11 µM (inactive) | 16 µM (inactive) | 3.73 µM (inactive) | 10 µM (inactive) | 7.53 µM (inactive) | 5.96 µM (inactive) | 4.1 µM (inactive) | 11.6 µM (inactive) |  |  | 9.71 µM (inactive) | 7.16 µM (inactive) | 4.1 µM (inactive) | 8.57 µM (inactive) | 2.24 µM (inactive) | 11.6 µM (inactive) | 5.43 µM (inactive)
8 | O=C1c2ccccc2C(=O)N1n1c(Cc2ccccc2)n[nH]c1=O | > 100 µM (inactive) |  | > 100 µM (inactive) | > 100 µM (inactive) | > 100 µM (inactive) | > 100 µM (inactive) | > 100 µM (inactive) | > 100 µM (inactive) |  | > 100 µM (inactive) | > 100 µM (inactive) |  | > 100 µM (inactive) | > 100 µM (inactive) |  | > 100 µM (inactive) | > 100 µM (inactive) | > 100 µM (inactive) | > 100 µM (inactive) | > 100 µM (inactive)
9 | CSc1ncc2c(n1)-c1ccccc1OC2N1CCOCC1 (stereo unspecified) | > 100 µM (inactive) | 87.9 µM (inactive) | 50 µM (inactive) | 90.4 µM (inactive) | > 100 µM (inactive) | > 100 µM (inactive) |  | 53.3 µM (inactive) | > 100 µM (inactive) | 41.5 µM (inactive) | 39.4 µM (inactive) | 34.4 µM (inactive) | 65.5 µM (inactive) | 68.2 µM (inactive) | 49.9 µM (inactive) | 56.1 µM (inactive) | 57.1 µM (inactive) | 55.8 µM (inactive) | 85.7 µM (inactive) | 
10 | CC(=O)O[C@H]1CC[C@@]2(C)C(=C[C@H](c3ccc(O)cc3)[C@H]3[C@@H]4CC[C@H](OC(C)=O)[C@@]4(C)CC[C@@H]32)C1 | 20.2 µM (inactive) | 19 µM (inactive) | 23 µM (inactive) | 13.6 µM (inactive) | 23.7 µM (inactive) | 22 µM (inactive) | 19.1 µM (inactive) | 16.6 µM (inactive) | > 100 µM (inactive) | 20.5 µM (inactive) |  |  | 14.1 µM (inactive) | 19.9 µM (inactive) | 14 µM (inactive) | 12.9 µM (inactive) | 13.5 µM (inactive) | 23 µM (inactive) | 17.4 µM (inactive) | 20.5 µM (inactive)
11 | CCC/C(C)=N/NC(=S)SC.CCC/C(C)=N/NC(=S)SC.[Zn+2] | 13.9 µM (inactive) | 14.1 µM (inactive) | 2.94 µM (inactive) | 3.07 µM (inactive) | 10.3 µM (inactive) | 9.44 µM (inactive) | 9.75 µM (inactive) | 11.5 µM (inactive) | 16.2 µM (inactive) | 16 µM (inactive) | 2.56 µM (inactive) | 11.3 µM (inactive) | 1.48 µM (inactive) | 16.2 µM (inactive) | 1.98 µM (inactive) | 16.6 µM (inactive) | 16.7 µM (inactive) | 7.24 µM (inactive) | 12.6 µM (inactive) | 
12 | CC1=C[C@@H](C)C[C@]2(C)CC[C@H](O2)[C@]23CC[C@](C)(C[C@H](O2)[C@@H]2O[C@@](C)(CC2=O)[C@@H](O)[C@H]2CC[C@@]4(CCC[C@@H](O4)[C@H](C)C(=O)O[C@H]4C[C@H]([C@]5(O)OCC[C@H](C)[C@@H]5O)O[C@H]4C=C1)O2)O3 | 0.383 µM (active) | 0.002 µM (active) |  | 0.00226 µM (active) | 0.0186 µM (active) | 0.0684 µM (active) | 0.0015 µM (active) | 0.0586 µM (active) | 0.00757 µM (active) | 0.00429 µM (active) | 0.00339 µM (active) | 0.0134 µM (active) | < 0.001 µM (active) | 0.0244 µM (active) |  | 0.00692 µM (active) | 0.897 µM (active) |  | 0.00157 µM (active) | 0.075 µM (active)
13 | COc1cc2c3c(n(C)c(=O)c2cc1OC)-c1cc2c(cc1/C3=C\CCCI)OCO2 | > 100 µM (inactive) | 0.776 µM (active) | 8.75 µM (inactive) | 20.4 µM (inactive) | > 4.65 µM (inactive) | 0.533 µM (active) | 10 µM (inactive) | > 87.9 µM (inactive) | 20.9 µM (inactive) | 5.42 µM (inactive) | 1.58 µM (inactive) | 6.75 µM (inactive) | 8.3 µM (inactive) | 13.7 µM (inactive) | 3.92 µM (inactive) | 2.07 µM (inactive) | 18.1 µM (inactive) | 2.91 µM (inactive) | 1.34 µM (inactive) | 
14 | CC(=O)OCC(OC(C)=O)C(OC(C)=O)C(OC(C)=O)C(C=NN(C(C)=O)S(=O)(=O)c1ccc(/C=C2\NC(=O)N(C)C2=O)cc1)OC(C)=O (stereo unspecified) | 20.4 µM (inactive) | 26.2 µM (inactive) | 30.6 µM (inactive) | 24.7 µM (inactive) | 37.8 µM (inactive) | 26.4 µM (inactive) | 26.3 µM (inactive) | > 100 µM (inactive) | 31.4 µM (inactive) | 18.8 µM (inactive) | 18.8 µM (inactive) |  | 11.9 µM (inactive) | 38.2 µM (inactive) | 18.5 µM (inactive) | 36.3 µM (inactive) | 73.3 µM (inactive) | 30.2 µM (inactive) | 22.8 µM (inactive) | 16.3 µM (inactive)
15 | O=C1CC(C(OCc2ccccc2)C(OCc2ccccc2)C(COCc2ccccc2)OCc2ccccc2)CC(=O)N1 (stereo unspecified) |  | > 75 µM (inactive) | > 75 µM (inactive) | > 75 µM (inactive) | > 75 µM (inactive) | > 100 µM (inactive) |  |  |  | > 75 µM (inactive) | > 100 µM (inactive) |  | > 75 µM (inactive) | > 75 µM (inactive) | > 75 µM (inactive) |  | > 75 µM (inactive) | > 100 µM (inactive) and 51.9 µM (inactive) | > 100 µM (inactive) | > 75 µM (inactive)
